Source: EPA's ToxRefDB 2

Tests used:
rat [1] = conditions: Developmental neurotoxicity study; long evans; Injection; Subcutaneous; dose end: 90 PND; group: cannot be grouped; reproductive / reproductive performance / sex ratio / sex ratio (% male)
mouse [2] = conditions: Carcinogenicity; cd1; Oral; Feed; dose end: 18 month; group: systemic; systemic / pathology microscopic / liver / hypertrophy
rat [3] = conditions: Combined chronic toxicity/carcinogenicity, sprague dawley, Oral, Feed, dose end: 104 week, group: systemic
mouse [4] = conditions: Carcinogenicity; cd1; Oral; Feed; dose end: 18 month; group: systemic; systemic / organ weight / liver / nos + systemic / pathology microscopic / liver / deformity + systemic / pathology microscopic / liver / …
dog [5] = conditions: Chronic toxicity, beagle, Oral, Feed, dose end: 52 week, group: systemic
mouse [6] = conditions: Subchronic oral toxicity in rodents, cd1, Feed, dose end: 90 day, group: systemic, systemic / organ weight / liver / absolute + systemic / organ weight / liver / relative to body weight + systemic / organ weight / liver / …
rat [7] = conditions: Multigenerational reproductive toxicity study, other, Oral, Feed, dose end: 2 generation
dog [8] = conditions: Chronic toxicity, beagle, Oral, Feed, dose end: 26 week, group: systemic
[9] = systemic / clinical chemistry / cholesterol / cholesterol + systemic / in life observation / body weight / body weight gain + systemic / …
[10] = systemic / in life observation / body weight / body weight gain
[11] = systemic / in life observation / body weight / body weight + systemic / in life observation / body weight / body weight gain + systemic / …
[12] = group: offspring, systemic / in life observation / body weight / offspring (pup) weight + systemic / in life observation / body weight / offspring (pup) …
[13] = group: parental, systemic / organ weight / liver / relative to body weight
[14] = systemic / pathology microscopic / prostate / atrophy + systemic / pathology microscopic / testes / atrophy
[15] = systemic / pathology microscopic / prostate / atrophy + systemic / pathology microscopic / testes / atrophy + systemic / pathology …

CCN(CC)CC(=O)Nc1c(C)cccc1C [Lidocaine]
LEL (rat [1]): 6 mg/kg/day
LOAEL (rat [1]): > 9 mg/kg/day
NEL (rat [1]): 3 mg/kg/day
NOAEL (rat [1]): ≥ 9 mg/kg/day

CC1OC(C)OC(C)OC(C)O1 (stereo unspecified) [Metaldehyde acetaldehyde tetramer]
LEL (mouse [2]): 48.9 mg/kg/day
LOAEL (mouse [2]): 48.9 mg/kg/day
NEL (mouse [2]): 15.9 mg/kg/day
NOAEL (mouse [2]): 15.9 mg/kg/day
LOAEL (rat [3]; [9]): 44 mg/kg/day
NOAEL (rat [3]; [9]): 2 mg/kg/day
LEL (rat [3]; [10]): 3 mg/kg/day
NEL (rat [3]; [10]): < 3 mg/kg/day
LEL (mouse [4]): 135 mg/kg/day
LOAEL (mouse [4]): 135 mg/kg/day
NEL (mouse [4]): < 135 mg/kg/day
NOAEL (mouse [4]): < 135 mg/kg/day
LEL (dog [5]; [11]): 10 mg/kg/day
NEL (dog [5]; [11]): < 10 mg/kg/day
NOAEL (dog [5]; systemic / in life observation / mortality / mortality + systemic / clinical chemistry / alkaline phosphatase (alp/alk) / alkaline …): 10 mg/kg/day
LOAEL (dog [5]; systemic / in life observation / mortality / mortality + systemic / pathology microscopic / prostate / atrophy + systemic / pathology …): 30 mg/kg/day
LEL (mouse [6]): 178 mg/kg/day
LOAEL (mouse [6]): 178 mg/kg/day
NEL (mouse [6]): 54 mg/kg/day
NOAEL (mouse [6]): 54 mg/kg/day
LEL (rat [7]; [12]): 134 mg/kg/day
LOAEL (rat [7]; [12]): 134 mg/kg/day
NEL (rat [7]; [12]): 64.9 mg/kg/day
NOAEL (rat [7]; [12]): 64.9 mg/kg/day
LEL (rat [7]; group: parental, systemic / in life observation / body weight / body weight + systemic / in life observation / body weight / body weight gain): 80.5 mg/kg/day
NEL (rat [7]; group: parental, systemic / in life observation / body weight / body weight + systemic / in life observation / body weight / body weight gain + systemic / in…): 4.03 mg/kg/day
LOAEL (rat [7]; [13]): 134 mg/kg/day
NOAEL (rat [7]; [13]): 64.9 mg/kg/day
LEL (dog [8]; [14]): 60 mg/kg/day
LOAEL (dog [8]; [14]): 60 mg/kg/day
NEL (dog [8]; [15]): 20 mg/kg/day
NOAEL (dog [8]; [15]): 20 mg/kg/day
